In ChEMBL document CHEMBL1158843, “Development of a radiochemical cyclooxygenase-1 and -2 in vitro assay for identification of natural products as inhibitors of prostaglandin biosynthesis” (J Nat Prod, 1998):

Molecular target: T1, Prostaglandin G/H synthase 1 (Bos taurus) (UniProt O62664)
T1 sequence (whole entry): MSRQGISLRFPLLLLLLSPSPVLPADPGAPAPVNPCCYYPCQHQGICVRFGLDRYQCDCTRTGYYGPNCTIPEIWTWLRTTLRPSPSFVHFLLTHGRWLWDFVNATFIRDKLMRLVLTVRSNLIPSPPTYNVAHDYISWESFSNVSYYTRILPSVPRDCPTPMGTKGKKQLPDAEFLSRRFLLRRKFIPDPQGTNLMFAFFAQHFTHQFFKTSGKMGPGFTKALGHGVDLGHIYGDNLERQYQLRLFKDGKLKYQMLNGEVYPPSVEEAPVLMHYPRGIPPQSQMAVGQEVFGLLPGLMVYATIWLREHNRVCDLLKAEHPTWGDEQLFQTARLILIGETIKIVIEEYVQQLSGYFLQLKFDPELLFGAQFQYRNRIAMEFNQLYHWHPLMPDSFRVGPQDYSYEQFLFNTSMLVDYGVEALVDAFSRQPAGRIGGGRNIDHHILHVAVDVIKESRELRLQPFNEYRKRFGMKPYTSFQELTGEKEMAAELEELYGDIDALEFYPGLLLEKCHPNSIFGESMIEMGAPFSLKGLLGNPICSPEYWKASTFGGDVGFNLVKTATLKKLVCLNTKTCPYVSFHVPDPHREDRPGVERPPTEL
Assay: Inhibition of bovine seminal microsomal COX1 assessed as PGE2 production at 100 uM preincubated for 10 mins

inhibition: 9%
Compound: CS(=O)(=O)Nc1ccc([N+](=O)[O-])cc1OC1CCCCC1
